Measurements published in patent US11447522B2, “Potent soft anti-inflammatory corticosteroid compounds and uses thereof” (Bodor Laboratories, Inc., priority 2017, dated 2022).
Like-named read-outs stand apart in the source and are kept apart here.

Tests used:
[1] = test system: TNF α-production of LPS-stimulated blood cells; assay: TNF-α production of lipopolysaccharide-stimulated human blood; format: cell-based
Procedure: (§1) The in vitro anti-inflammatory effect of ED and its analogs was assessed using LPS-induced TNF α-release under various conditions (diluted or undiluted whole human blood, preincubation with sera) to determine the intrinsic anti-inflammatory activity and systemic biological stability of the various compounds.
(§2) Commercially available human cytokine ELISA sets were used. TNF-α and GM-CSF sets were purchased from BD Pharmingen, San Diego, Calif., USA) and the IL-1β set was obtained from R&D Systems (Minneapolis, Minn., USA). ELISA was performed according to the manufacturer's protocol. Cell-free supernatants were tested in duplicate. Detection limits were 7.8 pg/ml for TNF-α, 4.7 pg/ml for GM-CSF, and 3.9 pg/ml for IL-1β. Results were expressed as the mean percentage of inhibition. IC50 values for test compounds were calculated by linear regression.
Peripheral blood from healthy donors was collected aseptically into sterile heparinized (Vacutainer™) tubes. Whole blood samples from each individual were parallel used both undiluted and after 5-fold dilution with RPMI-1640 medium in every experiment. Blood samples were distributed into 24-well plates and incubated with serial concentrations of the test compounds and 1 μg/ml lipopolysaccharide for 24 h at 37° C. in a CO2 thermostat. Controls were treated with lipopolysaccharide and the vehicle (PBS or 0.01% dimethyl sulfoxide in PBS). After incubation, cell-free supernatants were separated by centrifugation (1000 g for 10 minutes) and stored at −20° C. until determination of the amount of TNF-α. Test compounds were examined in blood samples from five different individuals. Two parallel cultures per treatments were run.

[2] = test system: mitogen-induced proliferation of PBMC; assay: Proliferation of lectin-stimulated peripheral mononuclear cells; format: cell-based, human; conditions: read-out: Prolif.**: Inhibition of mitogen-induced proliferation of PBMC
Procedure: Mononuclear cells from heparinized peripheral blood of healthy donors were isolated on suitable gradient (Optiprep solution, 1.077 g/ml). Serial dilutions of the test compounds (ranging from 2×10^−6 to 2×10^−8 M) were made in 100 μl of medium per well of sterile round-bottomed 96-well microtiter plate. Control wells contained culture medium only. 100 μl of cell suspension (10^6 cells/ml), containing concanavalin A (2 μg/ml) was added to each well. […] All cultures were done in triplicate. Microtiter plates were incubated for 72 h at 37° C., in 5% CO2 containing humidified atmosphere. For the last 18 h of incubation, [^3H]thymidine was added to the cells cultures, at 0.1 μCi/well final concentration. At the end of the incubation, cells were harvested to glass microfiber filter (Whatman G/F) and associated radioactivity was determined by liquid scintillation.

[3] = test system: TNF-α production of LPS-stimulated whole blood cells; assay: Stability: inhibition of TNF-α production with or without preincubation of the compounds in human plasma/serum; format: cell-based
Procedure: as §1, §2
Mononuclear cells from peripheral blood of healthy donors were isolated on Ficoll-gradient. One million cells in 0.9 ml of RPMI 1640 medium were distributed into 24-well plates and serial concentrations of the test compounds, made in fresh human serum either instantly or 18 h previously, were added (0.05 ml) together with the lipopolysaccharide (0.05 ml; 1 μg/ml final concentration). Preincubation of the compounds with serum was carried out at 37° C. Processing of the cultures was done as described above.

[4] = test system: ovalbumin sensitized and challenged Brown Norway rats; assay: Airway changes of ovalbumin sensitized and challenged Brown Norway rats, intratracheal administration; format: in vivo; conditions: for AHR (airways hyperreactivity) ED50: relative response to maximal acetylcholine dose
[5] = test system: IL-1β from the human monocyte cell line THP-1; assay: IL-1β production of stimulated THP.1 cells; format: cell-based
Procedure: as §2
THP.1 cells (human monocytic cell line: American Type Culture Collection. Rockville, Md., USA) were maintained in RPMI-1640 medium, supplemented with 10% FCS, 5×10^−5 M 2-merkapto-ethanol, 2 mM glutamine and antibiotics, and were split in every 3rd days. To examine the effect of test compounds 2×10^6 cells/well (24 well plates in 1 ml/well volume) were stimulated with 1 μg/ml LPS and 25 μg/ml silica for IL-1β production as described previously (Németh et al. 1995). The test compounds were dissolved in RPMI-1640 medium or the medium containing 0.01% DMSO. Two parallel cell cultures per treatment groups were run in three independent experiments. IL-1β levels in cell-free supernatants were determined by ELISA.

receptor = conditions: scale where dexamethasone is 100; cited from earlier work
TNF-α production = conditions: cited from earlier work
[6] = Stability in the presence of human plasma (HPLC/MS/MS); format: in vitro ADME; conditions: 37° C.
Procedure: Etiprednol dicloacetate (BNP-166) was added to freshly prepared human plasma of healthy donors at a concentration of 5 ng/ml, and were incubated at 37° C. for different intervals. After incubation the amount of the original compound (ethyl-17α-dichloroacetoxy-11β-hydroxyandostra-1,4-diene-3-one-17β-carboxylate), and one of its main metabolite, M-OH (17α,11β-dihydroxyandostra-1,4-diene-3-one-17β-carboxylate) were determined using an HPLC/MS/MS method. In brief: Fluocinolone acetonide served as internal standard (20 ng/ml), samples were extracted with a liquid-liquid extraction on Extrelut® columns, and were separated on a Purospher STAR 30×2 mm (3 μm) reversed phase column at a flow rate of 0.3 ml/min, using a linear gradient with a mobile phase system containing acetonitrile, water and acetic acid. Determination were performed on a triple quadrupole mass spectrometer (Perkin-Elmer SCIEX API 2000) supplied with an electrospray interface operated in the positive ionization mode. The multiple ion monitoring, parent→daughter ion transitions of 485.2→265.2, 375.2→265.2 and 495.2→337.2 were used for the quantification of etiprednol dicloacetate, its M-OH metabolite and for the internal standard respectively. Results are expressed as peak areas normalized to the internal control. Stability of the selected ED analogs (10, 11, 13, 17, 21, 25) were determined as described above for ED (3).

[7] = diluted blood 1:5, read-out: TNFα* a: Inhibition of TNF α-production of LPS-stimulated blood cells
[8] = undiluted blood, read-out: TNFα* b: Inhibition of TNF α-production of LPS-stimulated blood cells
[9] = non-preincubated in human plasma, read-out: Stability*** c: Inhibition of TNF-α production of LPS-stimulated whole blood cells
[10] = preincubated overnight in human plasma, read-out: Stability*** d: Inhibition of TNF-α production of LPS-stimulated whole blood cells
[11] = intratracheal, 2 hours prior challenge
[12] = intratracheal, 2 hours prior challenge, minimal statistically significantly effective dose

Structure (SMILES)	IC50 [1, 7] [µM]	IC50 [1, 8] [µM]	IC50 [2] [µM]	IC50 [3, 9] [µM]	IC50 [3, 10] [µM]	Edema formation ED50 [4, 11] [µg/kg]	Eosinophilia BALF ED50 [4, 11] [µg/kg]	Eosinophilia Perivascular ED50 [4, 11] [µg/kg]	Mucus production ED50 [4, 11] [µg/kg]	Mucus production, second line (dose type not given) [4, 11] [µg/kg]	AHR (airways hyperreactivity) MSED [4, 12]	Edema formation MSED [4, 12] [µg/kg]	Eosinophilia BALF MSED [4, 12] [µg/kg]	Eosinophilia Perivascular MSED [4, 12] [µg/kg]	AHR (airways hyperreactivity) ED50 [4, 11]	relative receptor binding activity (RRBA) (receptor)	other results
CCOC(=O)[C@@]1(OC(=O)C(Cl)Cl)CC[C@H]2[C@@H]3CCC4=CC(=O)C=C[C@]4(C)[C@H]3[C@@H](O)C[C@@]21C [Compound 3, Ethyl 17α-dichloroacetoxy-11β-hydroxyandrosta-1,4-diene-3-one-17β-carboxylate]	0.027	0.103	0.01	0.073	2.7	2.9	≤0.1	>100	13.8	0.1	≈1.0 μg/kg	0.1	0.1	1.0	≈1.0 μg/kg	~200	Eosinophilia Peribronchial ED50 [4, 11]: 0.62 µg/kg; Eosinophilia Peribronchial MSED [4, 12]: 0.1 µg/kg; inhibition of the liberation of IL-1β [5]: significantly inhibited; loss of activity during incubation (TNF-α production; five days): 100 fold; loss of activity during incubation (TNF-α production; two days): five-fold
C[C@@H]1C[C@H]2[C@@H]3C[C@H](F)C4=CC(=O)C=C[C@]4(C)[C@@]3(F)[C@@H](O)C[C@]2(C)[C@@]1(OC(=O)C(Cl)Cl)C(=O)SCF [Compound 25, S-Fluoromethyl 17α-dichloroacetoxy-6α,9α-difluoro-11β-hydroxy-16α-methyl-3-oxoandrosta-1,4-diene-17β-carbothioate]	0.002	0.003	0.0001	0.001	0.087	<1.0	16.1	83.8	7.42	100	10 µg/kg	1.0	1.0	1.0	3.75 µg/kg	–	overall in vivo activity compared with the parent steroid ([4]; Table 2 parameters): overall superior to FLU; BALF protein ED50 ([4]; intratracheal, 2 hours prior challenge, broncho-alveolar lavage fluid): 0.64 µg/kg; BALF protein MSED [4, 12]: 100 µg/kg; stability in the presence of human plasma [6]: particularly stable
CCOC(=O)O[C@]1(C(=O)OCCl)CCC2C3CCC4=CC(=O)C=CC4(C)C3[C@@H](O)CC21C (stereo partly drawn) [LE, chloromethyl 17α-ethoxycarbonyloxy-11β-hydroxyandrosta-1,4-dien-3-one-17β-carboxylate]	–	–	–	–	–	–	–	–	–	–	–	–	–	–	–	160	–
